Measured values published in patent publication US9469650B2, “Melampomagnolide B derivatives” (BOARD OF TRUSTEES OF THE UNIVERSITY OF ARKANSAS, priority 2013, dated 2016).

Assays:
CCRF-CEM = test: panel of 60 human tumor cell lines, growth inhibition (Leukemia)
SR = test: as above
SK-MEL-2 = test: panel of 60 human tumor cell lines, growth inhibition (Melanoma)
SK-MEL-28 = test: as above
UACC-257 = test: as above
UACC-62 = test: as above
SNB-75 = test: panel of 60 human tumor cell lines, growth inhibition (CNS Cancer)
HCT-116 = test: panel of 60 human tumor cell lines, growth inhibition (Colon Cancer); conditions: for Percent Growth: HCT-116; for GI50: HCT-116, HCT-116
HT29 = test: as above; conditions: for Percent Growth: HT29
KM12 = test: as above
SN12C = test: panel of 60 human tumor cell lines, growth inhibition (Renal Cancer)
TK-10 = test: as above; conditions: for GI50: TK-10, TK-10; for Percent Growth: TK-10
MDA-MB-231/ATCC = test: panel of 60 human tumor cell lines, growth inhibition (Breast Cancer); conditions: for Percent Growth: MDA-MB-231/ATCC
MDA-MB-468 = test: as above
OVCAR-8 = test: panel of 60 human tumor cell lines, growth inhibition (Ovarian Cancer)
A549/ATCC = test: panel of 60 human tumor cell lines, growth inhibition (Non-Small Cell Lung Cancer); conditions: for Percent Growth: A549/ATCC

Which results are given for `C=C1C(=O)O[C@H]2[C@H]1CC/C(COC(=O)NCCc1ccccn1)=C\CC[C@@]1(C)O[C@@H]21` [JVM 61, ((1aR,7aS,10aS,10bS,E)-1a-methyl-8-methylene-9-oxo-1a,2,3,6,7,7a,8,9,10a,10b-decahydrooxireno[2′,3′:9,10]cyclodeca[1,2-b]furan-5-yl)methyl-(2-(pyridin-2-yl)ethyl)carbamate]?
GI50 (CCRF-CEM; Homo sapiens): 2.65 µM; GI50 (CCRF-CEM; Homo sapiens, 5-dose assay): 2.65 µM; CC50 (CCRF-CEM; Homo sapiens, read-out: LC50): > 100 µM; IC (TGI) (CCRF-CEM; Homo sapiens, read-out: TGI): 8.59 µM; Percent Growth (CCRF-CEM; Log10 Concentration −4.0): −39%; Percent Growth (CCRF-CEM; Log10 Concentration −5.0): −6%; Percent Growth (CCRF-CEM; Log10 Concentration −6.0): 91%; Percent Growth (CCRF-CEM; Log10 Concentration −7.0): 100%; Percent Growth (CCRF-CEM; Log10 Concentration −8.0): 104%; GI50 (SR; Homo sapiens): 4.1 µM; CC50 (SR; Homo sapiens, read-out: LC50): > 100 µM; IC (TGI) (SR; Homo sapiens, read-out: TGI): 24.6 µM; Percent Growth (SR; Log10 Concentration −4.0): −34%; Percent Growth (SR; Log10 Concentration −5.0): 22%; Percent Growth (SR; Log10 Concentration −6.0): 95%; Percent Growth (SR; Log10 Concentration −7.0): 100%; Percent Growth (SR; Log10 Concentration −8.0): 99%; GI50 (SK-MEL-2; Homo sapiens, SK-MEL-2): 15.1 µM; CC50 (SK-MEL-2; Homo sapiens, SK-MEL-2, read-out: LC50): 69 µM; IC (TGI) (SK-MEL-2; Homo sapiens, SK-MEL-2, read-out: TGI): 32.3 µM; Percent Growth (SK-MEL-2; SK-MEL-2, Log10 Concentration −4.0): −74%; Percent Growth (SK-MEL-2; SK-MEL-2, Log10 Concentration −5.0): 77%; Percent Growth (SK-MEL-2; SK-MEL-2, Log10 Concentration −6.0): 112%; Percent Growth (SK-MEL-2; SK-MEL-2, Log10 Concentration −7.0): 110%; Percent Growth (SK-MEL-2; SK-MEL-2, Log10 Concentration −8.0): 109%; GI50 (SK-MEL-28; Homo sapiens, SK-MEL-28): 5.25 µM; CC50 (SK-MEL-28; Homo sapiens, SK-MEL-28, read-out: LC50): 45.5 µM; IC (TGI) (SK-MEL-28; Homo sapiens, SK-MEL-28, read-out: TGI): 18.1 µM; Percent Growth (SK-MEL-28; SK-MEL-28, Log10 Concentration −4.0): −93%; Percent Growth (SK-MEL-28; SK-MEL-28, Log10 Concentration −5.0): 32%; Percent Growth (SK-MEL-28; SK-MEL-28, Log10 Concentration −6.0): 96%; Percent Growth (SK-MEL-28; SK-MEL-28, Log10 Concentration −7.0): 96%; Percent Growth (SK-MEL-28; SK-MEL-28, Log10 Concentration −8.0): 104%; GI50 (UACC-257; Homo sapiens, UACC-257): 4.59 µM; CC50 (UACC-257; Homo sapiens, UACC-257, read-out: LC50): 53.7 µM; TGI (UACC-257; UACC-257): 1.95E−5; Percent Growth (UACC-257; UACC-257, Log10 Concentration −4.0): −81%; Percent Growth (UACC-257; UACC-257, Log10 Concentration −5.0): 33%; Percent Growth (UACC-257; UACC-257, Log10 Concentration −6.0): 83%; Percent Growth (UACC-257; UACC-257, Log10 Concentration −7.0): 92%; Percent Growth (UACC-257; UACC-257, Log10 Concentration −8.0): 97%; GI50 (UACC-62; Homo sapiens, UACC-62): 6.29 µM; CC50 (UACC-62; Homo sapiens, UACC-62, read-out: LC50): 49 µM; IC (TGI) (UACC-62; Homo sapiens, UACC-62, read-out: TGI): 20.3 µM; Percent Growth (UACC-62; UACC-62, Log10 Concentration −4.0): −90%; Percent Growth (UACC-62; UACC-62, Log10 Concentration −5.0): 40%; Percent Growth (UACC-62; UACC-62, Log10 Concentration −6.0): 89%; Percent Growth (UACC-62; UACC-62, Log10 Concentration −7.0): 92%; Percent Growth (UACC-62; UACC-62, Log10 Concentration −8.0): 100%; GI50 (SNB-75; Homo sapiens, SNB-75): 3.78 µM; CC50 (SNB-75; Homo sapiens, SNB-75, read-out: LC50): 48.4 µM; IC (TGI) (SNB-75; Homo sapiens, SNB-75, read-out: TGI): 18.6 µM; Percent Growth (SNB-75; SNB-75, Log10 Concentration −4.0): −88%; Percent Growth (SNB-75; SNB-75, Log10 Concentration −5.0): 32%; Percent Growth (SNB-75; SNB-75, Log10 Concentration −6.0): 74%; Percent Growth (SNB-75; SNB-75, Log10 Concentration −7.0): 76%; Percent Growth (SNB-75; SNB-75, Log10 Concentration −8.0): 81%; Percent Growth (HCT-116; Log10 Concentration −4.0): −99%; Percent Growth (HCT-116; Log10 Concentration −5.0): −33%; Percent Growth (HCT-116; Log10 Concentration −6.0): 82%; Percent Growth (HCT-116; Log10 Concentration −7.0): 102%; Percent Growth (HCT-116; Log10 Concentration −8.0): 99%; GI50 (HCT-116; Homo sapiens): 1.59 µM; GI50 (HCT-116; Homo sapiens, 5-dose assay): 1.89 µM; CC50 (HCT-116; Homo sapiens, HCT-116, read-out: LC50): 17.9 µM; IC (TGI) (HCT-116; Homo sapiens, HCT-116, read-out: TGI): 5.12 µM; Percent Growth (HT29; Log10 Concentration −4.0): −78%; Percent Growth (HT29; Log10 Concentration −5.0): 24%; Percent Growth (HT29; Log10 Concentration −6.0): 110%; Percent Growth (HT29; Log10 Concentration −7.0): 106%; Percent Growth (HT29; Log10 Concentration −8.0): 104%; GI50 (HT29; Homo sapiens, HT-29): 4.69 µM; CC50 (HT29; Homo sapiens, HT-29, read-out: LC50): 53.1 µM; IC (TGI) (HT29; Homo sapiens, HT-29, read-out: TGI): 17.2 µM; GI50 (KM12; Homo sapiens, KM12): 16.5 µM; CC50 (KM12; Homo sapiens, KM12, read-out: LC50): 62.2 µM; TGI (KM12; KM12): 3.21E−5; Percent Growth (KM12; KM12, Log10 Concentration −4.0): −86%; Percent Growth (KM12; KM12, Log10 Concentration −5.0): 88%; Percent Growth (KM12; KM12, Log10 Concentration −6.0): 103%; Percent Growth (KM12; KM12, Log10 Concentration −7.0): 107%; Percent Growth (KM12; KM12, Log10 Concentration −8.0): 105%; GI50 (SN12C; Homo sapiens): 6.61 µM; CC50 (SN12C; Homo sapiens, read-out: LC50): 66.3 µM; IC (TGI) (SN12C; Homo sapiens, read-out: TGI): 25.4 µM; Percent Growth (SN12C; Log10 Concentration −4.0): −70%; Percent Growth (SN12C; Log10 Concentration −5.0): 41%; Percent Growth (SN12C; Log10 Concentration −6.0): 91%; Percent Growth (SN12C; Log10 Concentration −7.0): 92%; Percent Growth (SN12C; Log10 Concentration −8.0): 95%; GI50 (TK-10; Homo sapiens): 3.13 µM; GI50 (TK-10; Homo sapiens, 5-dose assay): 3.78 µM; CC50 (TK-10; Homo sapiens, TK-10, read-out: LC50): 37.5 µM; IC (TGI) (TK-10; Homo sapiens, TK-10, read-out: TGI): 12.9 µM; Percent Growth (TK-10; Log10 Concentration −4.0): −96%; Percent Growth (TK-10; Log10 Concentration −5.0): 12%; Percent Growth (TK-10; Log10 Concentration −6.0): 102%; Percent Growth (TK-10; Log10 Concentration −7.0): 104%; Percent Growth (TK-10; Log10 Concentration −8.0): 101%; GI50 (MDA-MB-231/ATCC; Homo sapiens, MDA-MB-231): 11.4 µM; CC50 (MDA-MB-231/ATCC; Homo sapiens, MDA-MB-231, read-out: LC50): 56.4 µM; IC (TGI) (MDA-MB-231/ATCC; Homo sapiens, MDA-MB-231, read-out: TGI): 25.4 µM; Percent Growth (MDA-MB-231/ATCC; Log10 Concentration −4.0): −86%; Percent Growth (MDA-MB-231/ATCC; Log10 Concentration −5.0): 58%; Percent Growth (MDA-MB-231/ATCC; Log10 Concentration −6.0): 96%; Percent Growth (MDA-MB-231/ATCC; Log10 Concentration −7.0): 100%; Percent Growth (MDA-MB-231/ATCC; Log10 Concentration −8.0): 103%; GI50 (MDA-MB-468; Homo sapiens, MDA-MB-468): 3.22 µM; CC50 (MDA-MB-468; Homo sapiens, MDA-MB-468, read-out: LC50): 64.5 µM; IC (TGI) (MDA-MB-468; Homo sapiens, MDA-MB-468, read-out: TGI): 16.4 µM; Percent Growth (MDA-MB-468; MDA-MB-468, Log10 Concentration −4.0): −66%; Percent Growth (MDA-MB-468; MDA-MB-468, Log10 Concentration −5.0): 18%; Percent Growth (MDA-MB-468; MDA-MB-468, Log10 Concentration −6.0): 83%; Percent Growth (MDA-MB-468; MDA-MB-468, Log10 Concentration −7.0): 89%; Percent Growth (MDA-MB-468; MDA-MB-468, Log10 Concentration −8.0): 95%; GI50 (OVCAR-8; Homo sapiens, OVCAR-8): 4.39 µM; CC50 (OVCAR-8; Homo sapiens, OVCAR-8, read-out: LC50): 65.1 µM; IC (TGI) (OVCAR-8; Homo sapiens, OVCAR-8, read-out: TGI): 18.5 µM; Percent Growth (OVCAR-8; OVCAR-8, Log10 Concentration −4.0): −67%; Percent Growth (OVCAR-8; OVCAR-8, Log10 Concentration −5.0): 25%; Percent Growth (OVCAR-8; OVCAR-8, Log10 Concentration −6.0): 96%; Percent Growth (OVCAR-8; OVCAR-8, Log10 Concentration −7.0): 100%; Percent Growth (OVCAR-8; OVCAR-8, Log10 Concentration −8.0): 108%; Percent Growth (A549/ATCC; Log10 Concentration −4.0): −54%; Percent Growth (A549/ATCC; Log10 Concentration −5.0): 64%; Percent Growth (A549/ATCC; Log10 Concentration −6.0): 6.7%; Percent Growth (A549/ATCC; Log10 Concentration −8.0): 95%; GI50 (A549/ATCC; Homo sapiens, A549): 13.1 µM; CC50 (A549/ATCC; Homo sapiens, A549, read-out: LC50): 92 µM; IC (TGI) (A549/ATCC; Homo sapiens, A549, read-out: TGI): 34.7 µM
